PubChem BioAssay AID2060599 (Molecular Pharmacology Branch, DTP, NCI, 2025)

Test system: 817829-284-R-J1-PDC complex spheroids, viability
Assay: Anticancer human tumor 817829-284-R-J1-PDC patient-derived colon adenocarcinoma cell line growth inhibition [CLK]
Conditions: for IC50: curve of first compound; for viability, T/C: stronger effect = lower value
Method in brief: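 Multi-cell-type spheroids combined patient-derived tumor cells with HUVEC endothelial cells and human mesenchymal stem cells. Paired agents were dosed in half-log steps down from about clinical Cmax, or from 10 microM where Cmax was unknown.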

[1] = second compound 0.0316 µM, first compound 0.0316 µM
[2] = second compound 0.0316 µM, first compound 0.1 µM
[3] = second compound 0.0316 µM, first compound 0.316 µM
[4] = second compound 0.0316 µM, first compound 1 µM
[5] = second compound 0.0316 µM, first compound 3.16 µM
[6] = second compound 0.0316 µM, first compound 10 µM
[7] = second compound 0.1 µM, first compound 0.0316 µM
[8] = second compound 0.1 µM, first compound 0.1 µM
[9] = second compound 0.1 µM, first compound 0.316 µM
[10] = second compound 0.1 µM, first compound 1 µM
[11] = second compound 0.1 µM, first compound 3.16 µM
[12] = second compound 0.1 µM, first compound 10 µM
[13] = second compound 0.316 µM, first compound 0.0316 µM
[14] = second compound 0.316 µM, first compound 0.1 µM
[15] = second compound 0.316 µM, first compound 0.316 µM
[16] = second compound 0.316 µM, first compound 1 µM
[17] = second compound 0.316 µM, first compound 3.16 µM
[18] = second compound 0.316 µM, first compound 10 µM
[19] = second compound 1 µM, first compound 0.0316 µM
[20] = second compound 1 µM, first compound 0.1 µM
[21] = second compound 1 µM, first compound 0.316 µM
[22] = second compound 1 µM, first compound 1 µM
[23] = second compound 1 µM, first compound 3.16 µM
[24] = second compound 1 µM, first compound 10 µM
[25] = second compound 3.16 µM, first compound 0.0316 µM
[26] = second compound 3.16 µM, first compound 0.1 µM
[27] = second compound 3.16 µM, first compound 0.316 µM
[28] = second compound 3.16 µM, first compound 1 µM
[29] = second compound 3.16 µM, first compound 3.16 µM
[30] = second compound 3.16 µM, first compound 10 µM
[31] = second compound 10 µM, first compound 0.0316 µM
[32] = second compound 10 µM, first compound 0.1 µM
[33] = second compound 10 µM, first compound 0.316 µM
[34] = second compound 10 µM, first compound 1 µM
[35] = second compound 10 µM, first compound 3.16 µM
[36] = second compound 10 µM, first compound 10 µM
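Further: spheroids exposed to the agents for seven days before readout.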

C=C(F)C(=O)N1CCN(c2nc(OCC3CCCN3C)nc3c2CCN(c2cccc4cccc(Cl)c24)C3)CC1CC#N (stereo not drawn) + CNC(=O)c1ccc(Nc2nc(OC3CCCC3)c3c(-c4ccc5nc(C)oc5c4)c[nH]c3n2)c(OC)c1
IC50 (second compound 0.0316 µM): < 31.6 nM
IC50 (second compound 0.1 µM): < 31.6 nM
IC50 (second compound 0.316 µM): < 31.6 nM
IC50 (second compound 1 µM): < 31.6 nM
IC50 (second compound 3.16 µM): < 31.6 nM
IC50 (second compound 10 µM): < 31.6 nM
viability, T/C [1]: 19.9%
viability, T/C [2]: 42.3%
viability, T/C [3]: 23.4%
viability, T/C [4]: 23.3%
viability, T/C [5]: 17.6%
viability, T/C [6]: 0.08%
viability, T/C [7]: 34.9%
viability, T/C [8]: 23%
viability, T/C [9]: 26.5%
viability, T/C [10]: 23.6%
viability, T/C [11]: 16.1%
viability, T/C [12]: 0.15%
viability, T/C [13]: 25.3%
viability, T/C [14]: 25.3%
viability, T/C [15]: 22.7%
viability, T/C [16]: 24.5%
viability, T/C [17]: 10.8%
viability, T/C [18]: 0.08%
viability, T/C [19]: 22.4%
viability, T/C [20]: 24.6%
viability, T/C [21]: 28%
viability, T/C [22]: 24.4%
viability, T/C [23]: 5.74%
viability, T/C [24]: 0.07%
viability, T/C [25]: 20.7%
viability, T/C [26]: 26.8%
viability, T/C [27]: 22.5%
viability, T/C [28]: 21%
viability, T/C [29]: 3.26%
viability, T/C [30]: 0.18%
viability, T/C [31]: 21.7%
viability, T/C [32]: 14.1%
viability, T/C [33]: 20.6%
viability, T/C [34]: 28.5%
viability, T/C [35]: 3.94%
viability, T/C [36]: 0.22%

C=CC(=O)N1CCN(c2nc(=O)n(-c3c(C)ccnc3C(C)C)c3nc(-c4c(O)cccc4F)c(F)cc23)C(C)C1 (stereo not drawn) + CNC(=O)c1ccc(Nc2nc(OC3CCCC3)c3c(-c4ccc5nc(C)oc5c4)c[nH]c3n2)c(OC)c1
IC50 (second compound 0.0316 µM): < 31.6 nM
IC50 (second compound 0.1 µM): < 31.6 nM
IC50 (second compound 0.316 µM): < 31.6 nM
IC50 (second compound 1 µM): < 31.6 nM
IC50 (second compound 3.16 µM): < 31.6 nM
IC50 (second compound 10 µM): < 31.6 nM
viability, T/C [1]: 35.9%
viability, T/C [2]: 44.3%
viability, T/C [3]: 34.6%
viability, T/C [4]: 24.2%
viability, T/C [5]: 25.9%
viability, T/C [6]: 15%
viability, T/C [7]: 30.9%
viability, T/C [8]: 22.7%
viability, T/C [9]: 30.4%
viability, T/C [10]: 25.1%
viability, T/C [11]: 22.2%
viability, T/C [12]: 22.9%
viability, T/C [13]: 28.8%
viability, T/C [14]: 35.2%
viability, T/C [15]: 30.8%
viability, T/C [16]: 22.8%
viability, T/C [17]: 31.2%
viability, T/C [18]: 17.4%
viability, T/C [19]: 22.3%
viability, T/C [20]: 20.8%
viability, T/C [21]: 18.2%
viability, T/C [22]: 19.8%
viability, T/C [23]: 20%
viability, T/C [24]: 12.4%
viability, T/C [25]: 22.4%
viability, T/C [26]: 25.8%
viability, T/C [27]: 15.9%
viability, T/C [28]: 22.2%
viability, T/C [29]: 23.5%
viability, T/C [30]: 10.6%
viability, T/C [31]: 27.2%
viability, T/C [32]: 23.3%
viability, T/C [33]: 22%
viability, T/C [34]: 27.3%
viability, T/C [35]: 19.1%
viability, T/C [36]: 12%

CCCS(=O)(=O)Nc1ccc(F)c(C(=O)c2c[nH]c3ncc(-c4ccc(Cl)cc4)cc23)c1F + CNC(=O)c1ccc(Nc2nc(OC3CCCC3)c3c(-c4ccc5nc(C)oc5c4)c[nH]c3n2)c(OC)c1
IC50 (second compound 0.0316 µM): < 31.6 nM
IC50 (second compound 0.1 µM): < 31.6 nM
IC50 (second compound 0.316 µM): < 31.6 nM
IC50 (second compound 1 µM): < 31.6 nM
IC50 (second compound 3.16 µM): < 31.6 nM
IC50 (second compound 10 µM): < 31.6 nM
viability, T/C [1]: 31.8%
viability, T/C [2]: 23.5%
viability, T/C [3]: 33.4%
viability, T/C [4]: 27%
viability, T/C [5]: 33%
viability, T/C [6]: 10.1%
viability, T/C [7]: 19.1%
viability, T/C [8]: 16.2%
viability, T/C [9]: 16.2%
viability, T/C [10]: 20.5%
viability, T/C [11]: 21.1%
viability, T/C [12]: 16.3%
viability, T/C [13]: 38%
viability, T/C [14]: 22.6%
viability, T/C [15]: 18%
viability, T/C [16]: 15.2%
viability, T/C [17]: 18.3%
viability, T/C [18]: 15.7%
viability, T/C [19]: 17.8%
viability, T/C [20]: 15%
viability, T/C [21]: 18.6%
viability, T/C [22]: 12.8%
viability, T/C [23]: 11.6%
viability, T/C [24]: 6.76%
viability, T/C [25]: 16.4%
viability, T/C [26]: 15.9%
viability, T/C [27]: 21.2%
viability, T/C [28]: 22.2%
viability, T/C [29]: 9.76%
viability, T/C [30]: 12.3%
viability, T/C [31]: 21.7%
viability, T/C [32]: 17.4%
viability, T/C [33]: 12%
viability, T/C [34]: 17.2%
viability, T/C [35]: 9.32%
viability, T/C [36]: 5.05%

COC1C=CCC(C)C(C)S(=O)(=O)NC(=O)c2ccc3c(c2)N(CC2CCC21)CC1(CCCc2cc(Cl)ccc21)CO3 (stereo not drawn) + CNC(=O)c1ccc(Nc2nc(OC3CCCC3)c3c(-c4ccc5nc(C)oc5c4)c[nH]c3n2)c(OC)c1
IC50 (second compound 0.0316 µM): < 31.6 nM
IC50 (second compound 0.1 µM): < 31.6 nM
IC50 (second compound 0.316 µM): < 31.6 nM
IC50 (second compound 1 µM): < 31.6 nM
IC50 (second compound 3.16 µM): < 31.6 nM
IC50 (second compound 10 µM): < 31.6 nM
viability, T/C [1]: 31.3%
viability, T/C [2]: 51.1%
viability, T/C [3]: 31.1%
viability, T/C [4]: 47.8%
viability, T/C [5]: 45.3%
viability, T/C [6]: 4.06%
viability, T/C [7]: 27.3%
viability, T/C [8]: 26.5%
viability, T/C [9]: 18.7%
viability, T/C [10]: 16.1%
viability, T/C [11]: 7.61%
viability, T/C [12]: 4.67%
viability, T/C [13]: 21.2%
viability, T/C [14]: 31.2%
viability, T/C [15]: 22.6%
viability, T/C [16]: 12.6%
viability, T/C [17]: 6.09%
viability, T/C [18]: 4.97%
viability, T/C [19]: 19.7%
viability, T/C [20]: 23.3%
viability, T/C [21]: 19.9%
viability, T/C [22]: 17.6%
viability, T/C [23]: 6.44%
viability, T/C [24]: 16%
viability, T/C [25]: 19.7%
viability, T/C [26]: 22.5%
viability, T/C [27]: 21.7%
viability, T/C [28]: 17.4%
viability, T/C [29]: 7.34%
viability, T/C [30]: 4.74%
viability, T/C [31]: 27.4%
viability, T/C [32]: 23.8%
viability, T/C [33]: 19.8%
viability, T/C [34]: 13.2%
viability, T/C [35]: 7.33%
viability, T/C [36]: 3.62%
